Measurements taken from US4460587A, “5-Diazacycloalkyl imidazo[1,2-c][1,3]benzodiazepines” (Ciba-Geigy Corporation, priority 1982, dated 1984).

Experiments:
[1] = test system: learned conditioned avoidance behavior; assay: conditioned avoidance (lever press to avoid electric foot shock) in rats; assay type: in vivo; settings: Rattus norvegicus, oral, read-out: oral dose that disrupts avoidance behavior, e.g. decreases avoidance responses
Procedure: (§1) Each lever press postpones the shock for 30 seconds. Whenever the animal fails to press the lever once within said period, brief (0.5 sec.) shocks are delivered at 15 second intervals until the animal again presses the lever. Under control conditions the animals press the lever at a moderately steady rate and seldom receive more than five or six shocks during a 25-minute (rats) and up to 4-hour experimental session. Said compounds are administered to the animals 30, 90, 210 minutes prior to the experimental session, and block the learned conditioned avoidance behavior, manifested by a decrease in avoidance responding with a marked increase in shocks taken by the animal. Both the avoidance responses and failures (shocks received) are recorded separately for evaluation.

[2] = test system: learned conditioned avoidance behavior; assay: conditioned avoidance (lever press to avoid electric foot shock) in monkeys; assay type: in vivo, squirrel monkeys; settings: Primates, oral, read-out: oral dose that disrupts avoidance behavior, e.g. decreases avoidance responses
Procedure: as §1

Molecule `CN1CCN(C2=Nc3ccccc3Cc3nccn32)CC1` [example 1, 5-(4-methyl-1-piperazinyl)-11H-imidazo[1,2-c][1,3]benzodiazepine] has a minimal effective dose [1] of at most 50 mg/kg and a minimal effective dose [2] of at most 50 mg/kg.
